The source of these data is US20170360029A1, “Chemical Agent For Controlling Soil Nematode Which Comprises Macrolide-Type Compound” (Maruwa Biochemical Co., Ltd., priority 2012, published 2017).

For data set [1], the system named is sweet potato root-knot nematodes. The data set can be described thus: Nematode Control Test Example 1: emulsions mixed with infested soil, cherry tomato pot test. Format: in vivo. The following applies: for Aerial part weight / Root-knot parasitism level: cherry tomato, after six weeks, sprayed liquid 10 ppm, concentration in soil 0.3 ppm; for Aerial part weight: mixed with soil; for nematode control effect (in words): concentration of active ingredient in the soil of 0.3 ppm; for Root-knot parasitism level: scale 0-4, mean. How it is done:
Each of abamectin 7.5% emulsion from NO. […] One liter of Pleistocene volcanic ash soil in which sweet potato root-knot nematodes had proliferated (the mean of initial sweet potato root-knot nematode density in the fourth-repeated cultivations: 235 nematodes/20 g of soil) was placed in a polyethylene bag and 30 ml of 10 ppm liquid of each chemical agent was mixed therewith while sprayed. The soil mixed with the chemical agent was filled in a pot with a surface area of 162 cm^2. A group where 1 L of soil was mixed and treated with 200 mg of a commercially available organophosphorus-based nematocide fosthiazate 1.5% granule (Ishihara Nemathorin Ace granule, a product from Ishihara Sangyo Kaisha, Ltd.) as a control chemical agent and a group with no treatment were set up. After the treatment with the chemical agent, three stocks of cherry tomato (variety Regina nursery plant with three true leaves, a product from Takii seed Co., Ltcd.) were planted. The test was repeated twice and cultivation management was conducted in a greenhouse. After six weeks, the weight of aerial parts and root-knot parasitism level were investigated.
(§1) In the test below, evaluation criteria for the root-knot parasitism level are as follows:
(§2) The evaluation was conducted using additional intermediate levels of 0.5 between each parasitism levels below at the investigation.
(§3) Parasitism level 0: No root-knots are noted at all.
(§4) Parasitism level 1: The formation of root-knots is noted in not more than 25% of the root.
(§5) Parasitism level 2: The formation of root-knots is noted in more than 25% and not more than 50% of the root.
(§6) Parasitism level 3: The formation of root-knots is noted in more than 50% and not more than 75% of the root.
(§7) Parasitism level 4: The formation of root-knots is noted in more than 75% of the root.

The conditions of data set [2]: cited from earlier work.
Data set [3] relates to sweet potato root-knot nematodes. The data set can be described thus: Nematode Control Test Example 2: abamectin and moxidectin emulsions, pot test. The following applies: for Aerial part weight: cherry tomato; for Aerial part weight / Root-knot parasitism level: after eight weeks; for Root-knot parasitism level: scale 0-4, mean. The class given is in vivo. How it is done:
as §1, §2, §3, §4, §5, §6, §7
Abamectin 7.5% emulsion from NO. 3 in Formulation Example 1 and moxidectin 7.5% emulsion from NO. 38 in Formulation Example 3 were prepared by diluting with tap water (water hardness about 70) at a concentration of active ingredient of 5 ppm, 10 ppm, and 20 ppm. One liter of Pleistocene volcanic ash soil in which sweet potato root-knot nematodes had proliferated (initial sweet potato root-knot nematode density: the mean in fourth-repeated cultivations 260 nematodes/20 g of soil) was placed in a polyethylene bag and 30 ml of each of the above was mixed therewith while sprayed. The soil mixed with the chemical agent was filled in a pot with a surface area of 162 cm^2. A group where 1 L of soil was mixed and treated with 200 mg of a commercially available organophosphorus-based nematocide fosthiazate 1.5% granule as a control chemical agent and a group with no treatment were set up. After the treatment with the chemical agent, four stocks of cherry tomato (variety Regina nursery plant with four true leaves) were planted. The test was repeated twice and cultivation management was conducted in a greenhouse. After eight weeks, the weight of aerial parts and root-knot parasitism level were investigated.

For data set [4] the following is noted: Non Patent Literature 4; cited from earlier work.
[5] abbreviates: sprayed liquid 5 ppm, concentration in soil 0.15 ppm.
The mark [6] stands for this setting: sprayed liquid 10 ppm, concentration in soil 0.3 ppm.
The mark [7] stands for this setting: sprayed liquid 20 ppm, concentration in soil 0.6 ppm.

Values after ≈ are worked out from the molar mass of the structure shown.

As to `CO[C@H]1C[C@H](O[C@H]2[C@H](C)O[C@@H](O[C@@H]3/C(C)=C/C[C@@H]4C[C@@H](C[C@]5(C=C[C@H](C)[C@@H](C6CCCCC6)O5)O4)OC(=O)[C@@H]4C=C(C)[C@@H](O)[C@H]5OC/C(=C\C=C\[C@@H]3C)[C@]54O)C[C@@H]2OC)O[C@@H](C)[C@@H]1O` [DOR, doramectin], in data set [1], the Aerial part weight came to 3.8 g/stock, the “nematode control effect (in words)” value is recorded as “apparent nematode control effect” and the Root-knot parasitism level is reported as 0.58.
As to emamectin, in data set [1], the Aerial part weight turned out to be 3.3 g/stock, the “nematode control effect (in words)” value is “apparently exhibited fewer effects” and the Root-knot parasitism level is 3.92.
As to ivermectin, in data set [1], the Aerial part weight was 3.7 g/stock, the “nematode control effect (in words)” value is reported as “apparent nematode control effect” and the Root-knot parasitism level is 0.83.
In data set [1], milbemectin yielded an Aerial part weight of 2.5 g/stock and a Root-knot parasitism level of 4.00. Also, the solubility to water in data set [2] is 0.00088 mg/mL.
As to `CC1=C[C@H]2C(=O)O[C@H]3C[C@@H](C/C=C(\C)C[C@@H](C)/C=C/C=C4\CO[C@H]([C@@H]1O)[C@@]42O)O[C@]1(C3)C[C@H](O)[C@H](C)[C@@H](/C(C)=C/C(C)C)O1` [NEM, nemadectin], in data set [1], the Aerial part weight stood at 3.0 g/stock and the Root-knot parasitism level was 4.00.
lepimectin: in data set [1], the Aerial part weight was determined as 3.1 g/stock and the Root-knot parasitism level amounted to 4.00.
Consider `CNC(=O)O/N=C(\SC)C(=O)N(C)C` [oxamyl], for which the solubility to water in data set [2] is 280 mg/mL (≈ 1280 mM).
With `CO[C@H]1C[C@H](O[C@@H]2/C(C)=C/C[C@@H]3C[C@@H](C[C@]4(CC[C@H](C)[C@@H](C5CCCCC5)O4)O3)OC(=O)[C@@H]3C=C(C)/C(=N/O)[C@H]4OC/C(=C\C=C\[C@@H]2C)[C@]43O)O[C@@H](C)[C@@H]1O` [SEL, selamectin], in data set [1], the Aerial part weight was 2.6 g/stock, the “nematode control effect (in words)” value is “apparently exhibited fewer effects” and the Root-knot parasitism level amounted to 4.00.
Take abamectin: in data set [3] (setting [5]), the Aerial part weight is 55 g/stock and the Root-knot parasitism level is listed as 2.38. In addition, in data set [3] (setting [6]), the Aerial part weight was found to be 49 g/stock and the Root-knot parasitism level was 1.17. In data set [3] (setting [7]), this compound displayed an Aerial part weight of 45 g/stock and a Root-knot parasitism level of 1.00. In addition, the “capability of controlling nematodes (in words)” value in data set [3] (comparison abamectin vs moxidectin, 0.15-0.6 ppm in soil) is “slightly better effect than moxidectin”. In addition, in data set [4], the “breakdown by soil microorganisms” value is given as “quickly broken down” and the soil adsorption entry is recorded as “very high”. In data set [1], the Aerial part weight is recorded as 3.7 g/stock, the “nematode control effect (in words)” value was “apparent nematode control effect” and the Root-knot parasitism level is 0.75.
`CO/N=C1\C[C@]2(C[C@@H]3C[C@@H](C/C=C(\C)C[C@@H](C)/C=C/C=C4\CO[C@@H]5[C@H](O)C(C)=C[C@@H](C(=O)O3)[C@]45O)O2)O[C@H](/C(C)=C/C(C)C)[C@H]1C` [MOX, moxidectin]: the Aerial part weight in data set [3] (setting [5]) was 44 g/stock; in data set [3] (setting [6]), 54 g/stock; in data set [3] (setting [7]), 42 g/stock; in data set [1], 4.1 g/stock. Moreover, the Root-knot parasitism level in data set [3] (setting [5]) was determined as 2.81; in data set [3] (setting [6]) it was 1.75; in data set [3] (setting [7]) it was 1.38; in data set [1], 1.33.
